Earlier results in patent US6420379B1, “Alkynyl-substituted camptothecins and process for their preparation” (Pharmacia & Upjohn S.p.A., priority 1997, dated 2002).

Tests used:
human albumin = human albumin (Homo sapiens, UniProt P02768); conditions: presence of biologically relevant levels of human albumin
[1] = 2 hours after drug addition to human plasma

Sequence of human albumin (P02768 25-609): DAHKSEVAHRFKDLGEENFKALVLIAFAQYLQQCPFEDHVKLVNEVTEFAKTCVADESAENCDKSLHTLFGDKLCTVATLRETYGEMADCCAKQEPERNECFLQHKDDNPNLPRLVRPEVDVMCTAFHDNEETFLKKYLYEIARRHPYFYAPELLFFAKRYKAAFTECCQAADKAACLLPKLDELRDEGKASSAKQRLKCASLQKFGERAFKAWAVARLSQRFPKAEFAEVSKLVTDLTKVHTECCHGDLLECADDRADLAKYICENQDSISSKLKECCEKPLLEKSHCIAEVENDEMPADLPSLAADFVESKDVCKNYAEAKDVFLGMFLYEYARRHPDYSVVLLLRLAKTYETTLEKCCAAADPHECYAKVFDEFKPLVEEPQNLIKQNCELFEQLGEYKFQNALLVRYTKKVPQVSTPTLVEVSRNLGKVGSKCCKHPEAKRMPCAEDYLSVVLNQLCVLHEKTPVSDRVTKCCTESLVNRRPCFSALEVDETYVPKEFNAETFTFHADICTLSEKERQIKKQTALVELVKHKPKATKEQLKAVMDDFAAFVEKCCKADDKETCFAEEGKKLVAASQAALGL

Structure (SMILES): CC[C@@]1(O)C(=O)OCc2c1cc1n(c2=O)Cc2cc3ccccc3nc2-1 [camptothecin]
- half-life of the biologically active form (human albumin): about 12 min.
- percentage of the drug converted to camptothecin carboxylate [1]: greater than 99%
